Patent US20210330611A1, “THERAPY FOR NEUROLOGICAL DISEASES/DISORDERS” (priority 2020, published 2021)
Counter-ions that a name gives are not always drawn. Like-named read-outs stand apart in the source and are kept apart here.

What was measured:
[1] = system: fibrin-induced microglia activation; experiment: Image-based assay of fibrin-induced microglia activation (HTS and dose response); format: cell-based, rat; settings: for IC50 / inhibition at 10 µM: Rattus norvegicus, Microglia; for inhibition at 10 µM: read-out: Fibrin % inhibition
[2] = system: LPS-induced microglia activation; experiment: Image-based assay of LPS-induced microglia activation (HTS and dose response); format: cell-based, rat; settings: for inhibition at 10 µM: read-out: LPS % inhibition
[3] = system: fibrin- and LPS-induced microglia activation; experiment: cells; format: cell-based, rat; settings: for inhibition at 10 µM: Rattus norvegicus
[4] = in vitro; settings: rat, Cell Toxicity IC50 (uM) [cFib assay]
[5] = in vitro; settings: rat
[6] = system: primary rat microglia; experiment: Cell toxicity (dead cells, size <150 μm2) in LPS assay; settings: for LPS % cell toxicity: primary microglia HTS, LPS stimulation, decreased size (<150 μm^2) as marker of toxicity; for IC50: read-out: Cell Toxicity IC50 (uM) [LPS assay], LPS assay
[7] = system: primary rat microglia; experiment: Cell toxicity (dead cells, size <150 μm2) in coated fibrin (cFib) assay; settings: for Fibrin % cell toxicity: primary microglia HTS, fibrin stimulation, decreased size (<150 μm^2) as marker of toxicity;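 as to Fibrin % cell toxicity: share of dead cells sized under 150 µm2 at 10 µM in fibrin-stimulated microglia HTS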
[8] = system: primary rat microglia
[9] = system: primary rat microglia; remark: listed apart in the source
[10] = 48 h, Table 1, dose response 0.001-20 μM, triplicates, primary rat microglia, 48 h, read-out: Fibrin IC50
[11] = dose response, fibrin-induced microglia activation, read-out: Fibrin IC50
[12] = fibrin-induced microglia activation, dose response, read-out: Fibrin IC50 (uM) (Suppl. Table 7)
[13] = primary microglia HTS, fibrin stimulation, increased cell size (>800 μm^2) as marker of activation
[14] = Rattus norvegicus, Microglia, 48 h, Table 1, dose response 0.001-20 μM, triplicates, primary rat microglia, 48 h, read-out: LPS IC50
[15] = Rattus norvegicus, Microglia, 48 h, primary microglia HTS, LPS stimulation, increased cell size (>800 μm^2) as marker of activation
[16] = Rattus norvegicus, Microglia, LPS-induced microglia activation, dose response, read-out: LPS IC50 (uM) (Suppl. Table 7)
[17] = Rattus norvegicus, Microglia, dose response, LPS-induced microglia activation, read-out: LPS IC50
[18] = HTS of 1907 compounds, quadrant by fibrin and LPS inhibition
[19] = Microglia, HTS hit classification, read-out: Hit
[20] = hit classification in microglia HTS, read-out: Cherry-picked Hit (Suppl. Table 7)
[21] = quadrant by fibrin and LPS inhibition in HTS of 1907 compounds
[22] = Table 3, read-out: Fibrin IC50 (uM) (Suppl. Table 7)
[23] = Rattus norvegicus, Microglia, Table 3, read-out: LPS IC50 (uM) (Suppl. Table 7)
[24] = Microglia, Table 3, read-out: Cherry-picked Hit (Suppl. Table 7)

SMILES | IC50 [1, 10] | IC50 [1, 11] | IC50 [1, 12] | inhibition at 10 µM [1, 13] | IC50 [2, 14] | inhibition at 10 µM [2, 15] | IC50 [2, 16] | IC50 [2, 17] | Quadrant (FIG. 5b) [3, 18] | inhibition at 10 µM [3, 19] | inhibition at 10 µM [3, 20] | Quadrant (FIG. 5b) ([3]; Table 1, screen at 10 μM) | Quadrant (FIG. 5b) [3, 21] | IC50 ([4]; cFib assay) | IC50 [5] | LPS % cell toxicity [6] | Fibrin % cell toxicity [7] | IC50 [1, 22] | IC50 [2, 23] | IC50 [6] | also measured
CN(C)CCc1c[nH]c2ccc(CS(=O)(=O)N3CCCC3)cc12 [Almotriptan, reference compound] | > 20 µM | > 20 µM | > 20 µM | 101% | > 20 µM | 85% | > 20 µM | > 20 µM | Q2 | > 50% | > 50% | Q2 | Q2 | > 20 µM | > 20 µM | 1% | 2% | – | – | – | –
O=C(OOC(=O)c1ccccc1)c1ccccc1 [Benzoyl peroxide, reference compound] | 20 µM | 20 µM | 20 µM | 75% | > 20 µM | 82% | > 20 µM | > 20 µM | Q2 | > 50% | > 50% | Q2 | Q2 | > 20 µM | > 20 µM | 2% | 1% | – | – | – | –
CN(C)CCCOc1nn(Cc2ccccc2)c2ccccc12 [Benzydamine hydrochloride, reference compound] | 6 µM | 6 µM | 6 µM | 75% | 3 µM | 102% | 3 µM | 3 µM | Q2 | > 50% | > 50% | Q2 | Q2 | 20 µM | 8 µM | 6% | 1% | – | – | – | –
S=C=NCc1ccccc1 [Benzyl isothiocyanate, reference compound] | 10 µM | 10 µM | 10 µM | 77% | > 20 µM | 68% | > 20 µM | > 20 µM | Q2 | > 50% | – | Q2 | Q2 | > 20 µM | > 20 µM | 2% | 2% | 10 µM | > 20 µM | > 20 µM | Fibrin Selectivity [1]: 2; Fibrin Selectivity (LOG10) [1]: 0.29; inhibition at 10 µM [3, 24]: > 50%; Quadrant (FIG. 5b) ([3]; Table 3, screen at 10 μM): Q2; IC50 ([4]; Table 3): > 20 µM
CC(=O)[C@@]1(O)CC[C@H]2[C@@H]3C=C(Cl)C4=CC(=O)[C@@H]5C[C@@H]5[C@]4(C)[C@H]3CC[C@@]21C [Cyproterone, reference compound] | – | – | – | – | – | – | – | – | Q3 | – | – | Q3 | Q3 | – | – | – | – | – | – | > 20 µM | Fibrin % inhibition [1, 13]: 51%; IC50 ([2]; LPS-induced microglia activation, dose response, read-out: LPS IC50 (uM) (Suppl. Table 7)): > 20 µM; IC50 ([2]; Table 1, dose response 0.001-20 μM, triplicates, primary rat microglia, 48 h, read-out: LPS IC50): > 20 µM; IC50 ([2]; dose response, LPS-induced microglia activation, read-out: LPS IC50): > 20 µM; LPS % inhibition ([2]; primary microglia HTS, LPS stimulation, increased cell size (>800 μm^2) as marker of activation): 5%; Hit ([3]; HTS hit classification): HIT (Hits were defined as molecules that exhibited greater than 50% inhibition of either fibrin or LPS activation); Cherry-picked Hit (Suppl. Table 7) ([3]; hit classification in microglia HTS): HIT (Hits were defined as molecules that exhibited greater than 50% inhibition of either fibrin or LPS activation); Fibrin % cell toxicity [8]: 1%; LPS % cell toxicity [9]: 0%; IC50 ([7]; read-out: Cell Toxicity IC50 (uM) [cFib assay], cFib assay): > 20 µM
C[C@@H]1C[C@H]2[C@@H]3CCC4=CC(=O)C=C[C@]4(C)[C@@]3(F)[C@@H](O)C[C@]2(C)[C@@]1(O)C(=O)CO [Dexamethasone, reference compound] | 15 µM | 15 µM | 15 µM | – | > 20 µM | – | > 20 µM | > 20 µM | Q3 | > 50% | > 50% | Q3 | – | > 20 µM | > 20 µM | – | – | – | – | – | IC50 ([1]; Table 7, read-out: fib_IC50): 0.002 µM; IC50 ([2]; Rattus norvegicus, Microglia, Table 7, read-out: LPS_IC50): 0.002 µM; Quadrant (FIG. 5b) ([3]; Table 2, screen at 10 μM): Q3
CC1(C)O[C@@H]2C[C@H]3[C@@H]4C[C@H](F)C5=CC(=O)C=C[C@]5(C)[C@H]4[C@@H](O)C[C@]3(C)[C@]2(C(=O)CO)O1 [Flunisolide, reference compound] | < 0.001 µM | < 0.001 µM | < 0.001 µM | 104% | < 0.001 µM | 101% | < 0.001 µM | < 0.001 µM | Q2 | > 50% | > 50% | Q2 | Q2 | > 20 µM | > 20 µM | – | – | – | – | – | –
CC[C@@]1(O)C(=O)OCc2c1cc1n(c2=O)Cc2cc3c([N+](=O)[O-])cccc3nc2-1 [Rubitecan, reference compound] | 2 µM | 2 µM | 2 µM | 73% | 9 µM | 30% | 9 µM | 9 µM | Q3 | > 50% | – | Q3 | Q3 | > 20 µM | > 20 µM | – | – | 2 µM | 9 µM | > 20 µM | inhibition at 10 µM [3, 24]: > 50%; Quadrant (FIG. 5b) ([3]; Table 3, screen at 10 μM): Q3; IC50 ([4]; Table 3): > 20 µM
CC[C@@H](C(=O)[C@@H](C)[C@@H](O)[C@H](C)[C@@H]1O[C@@H]([C@@H](CC)C(=O)O)CC[C@@H]1C)[C@H]1O[C@]2(C=C[C@@H](O)[C@]3(CC[C@@](C)([C@H]4CC[C@](O)(CC)[C@H](C)O4)O3)O2)[C@H](C)C[C@@H]1C [Salinomycin, sodium, reference compound] | 2 µM | 2 µM | 2 µM | 100% | 2 µM | 101% | 2 µM | 2 µM | Q2 | > 50% | > 50% | Q2 | Q2 | > 20 µM | – | 1% | 3% | – | – | – | Activity ([3]; Table 7, fib = fibrin, LPS, tox = toxicity, sodium): fib/LPS; IC50 ([7]; Rattus norvegicus, Microglia, read-out: dead_IC50 (uM), Table 7, fibrin or LPS assay not specified): 3.86 µM
C[C@]12C=CC(=O)C=C1CC[C@H]1[C@@H]3C[C@@H](O)[C@](O)(C(=O)CO)[C@@]3(C)C[C@H](O)[C@@]12F [Triamcinolone, reference compound] | 0.04 µM | 0.04 µM | 0.04 µM | 107% | 0.4 µM | 99% | 0.4 µM | 0.4 µM | – | > 50% | – | Q2 | Q2 | > 20 µM | > 20 µM | – | – | 0.04 µM | 0.4 µM | > 20 µM | Fibrin Selectivity [1]: 10; Fibrin Selectivity (LOG10) [1]: 1.00; inhibition at 10 µM ([1]; primary microglia HTS, 10 μM, fibrin-stimulated, cell size >800 μm^2 as marker of activation): -2%; inhibition at 10 µM ([2]; Rattus norvegicus, Microglia, primary microglia HTS, 10 μM, LPS-stimulated, cell size >800 μm^2 as marker of activation): -14%; inhibition at 10 µM [3, 24]: > 50%; Quadrant (FIG. 5b) ([3]; Table 3, screen at 10 μM): Q2; IC50 ([4]; Table 3): > 20 µM
